The source made the active and inactive calls.
Experiments:
[1] = target: Nonstructural protein 1 (Influenza A virus, UniProt Q194T2); assay type: functional, Influenza A virus (A/California/07/2009(H1N1))
[2] = target: Paired box protein Pax-8 (Homo sapiens, UniProt Q06710); assay: PAX8 transcriptional activity inhibition in RMG-I – RMG-I cells, luciferase, cherry-pick, dose response (AID 687027); assay type: functional, cell-based;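 note: luciferase reporter driven by Pax8 target thyroperoxidase promoter measured by SteadyGlo luminescence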
Chain of Paired box protein Pax-8 (Q06710 whole entry, the tested form may be a part): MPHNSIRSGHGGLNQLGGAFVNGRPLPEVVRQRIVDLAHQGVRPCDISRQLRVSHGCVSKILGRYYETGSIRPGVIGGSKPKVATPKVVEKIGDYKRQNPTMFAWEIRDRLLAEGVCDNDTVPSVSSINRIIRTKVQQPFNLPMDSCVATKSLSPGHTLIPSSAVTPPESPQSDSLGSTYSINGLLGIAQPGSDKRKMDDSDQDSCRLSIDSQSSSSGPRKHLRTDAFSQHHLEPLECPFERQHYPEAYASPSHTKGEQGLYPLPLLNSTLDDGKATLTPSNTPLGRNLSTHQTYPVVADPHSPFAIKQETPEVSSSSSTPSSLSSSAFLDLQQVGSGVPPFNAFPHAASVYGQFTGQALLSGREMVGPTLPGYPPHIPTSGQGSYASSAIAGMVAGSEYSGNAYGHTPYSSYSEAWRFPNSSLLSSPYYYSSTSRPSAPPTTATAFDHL

[3] = blockers of HIV-1 envelope-mediated cell-cell fusion – cherry-pick, dose response (AID 652057); assay type: functional, cell-based
[4] = blockers of HIV-1 ZM109 envelope-driven cell-cell fusion – HeLa effector, CEM target cells, luciferase, cherry-pick, dose response (AID 652058); assay type: functional, cell-based;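 note: luciferase signal from HIV-1 Env mediated cell-cell fusion of effector and target cells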
[5] = HIV-1 AD8 envelope cell-cell fusion blockers – cherry-pick, dose response (AID 652062); assay type: functional, cell-based;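 note: luciferase signal from cell-cell fusion driven by HIV-1 clade B AD8 Env; potency is for inhibitors of fusion seen as a drop in luminescence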
[6] = target: T1, Microphthalmia-associated transcription factor (Homo sapiens, UniProt O75030); assay: reducers of TRPM1 reporter luminescence, concentration series – cell-based, SK-MEL-5, cherry-picked, set 3, MITF inhibitor project, dose response (AID 493073); assay type: functional;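 note: SK-MEL-5 melanoma cells with luciferase driven by the MITF target TRPM1 promoter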
T1 sequence (O75030 whole entry): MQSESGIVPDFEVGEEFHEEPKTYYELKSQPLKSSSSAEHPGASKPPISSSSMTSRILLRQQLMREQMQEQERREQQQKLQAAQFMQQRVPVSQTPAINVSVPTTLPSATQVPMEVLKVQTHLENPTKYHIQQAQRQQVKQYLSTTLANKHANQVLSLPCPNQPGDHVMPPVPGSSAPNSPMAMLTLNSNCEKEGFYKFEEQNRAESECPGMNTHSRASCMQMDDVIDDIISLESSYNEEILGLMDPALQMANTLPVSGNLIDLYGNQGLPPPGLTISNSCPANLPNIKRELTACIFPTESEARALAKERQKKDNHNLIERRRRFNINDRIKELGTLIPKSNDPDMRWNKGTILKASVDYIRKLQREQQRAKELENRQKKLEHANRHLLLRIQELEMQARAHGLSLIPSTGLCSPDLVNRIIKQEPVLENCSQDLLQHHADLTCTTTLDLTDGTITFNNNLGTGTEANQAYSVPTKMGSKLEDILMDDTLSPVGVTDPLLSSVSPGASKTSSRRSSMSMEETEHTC

[7] = system: INS1; assay: INS-1E survival protection against cytokine death – cell-based, luminescence, retest, dose response (AID 449756); assay type: functional; conditions: Rattus norvegicus;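 note: cell death triggered by IL-1 beta plus TNF-alpha plus IFN-gamma mixture; protective hits raise ATP signal compared with cytokine alone wells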
[8] = cells; assay type: functional, cell-based
[9] = cells; assay type: functional, cell-based; remark: listed apart in the source
[10] = THP-1 cell cytotoxicity, dose response, cytotoxicity control for non-replicating M. tuberculosis project (AID 489025); assay type: functional
[11] = Vero E6 cell cytotoxicity, dose response, cytotoxicity control for non-replicating M. tuberculosis project, secondary assay (AID 492998); assay type: functional, VeroE6; conditions: Vero C1008
[12] = cells; assay type: functional
[13] = target: Glucose-6-phosphate 1-dehydrogenase (Homo sapiens, UniProt P11413); assay: inhibition of Homo sapiens G6PD, dose series – biochemical, fluorescence, selectivity assay for P. falciparum G6PD inhibitor project, dose response (AID 504792); assay type: functional
Chain of Glucose-6-phosphate 1-dehydrogenase (P11413 whole entry): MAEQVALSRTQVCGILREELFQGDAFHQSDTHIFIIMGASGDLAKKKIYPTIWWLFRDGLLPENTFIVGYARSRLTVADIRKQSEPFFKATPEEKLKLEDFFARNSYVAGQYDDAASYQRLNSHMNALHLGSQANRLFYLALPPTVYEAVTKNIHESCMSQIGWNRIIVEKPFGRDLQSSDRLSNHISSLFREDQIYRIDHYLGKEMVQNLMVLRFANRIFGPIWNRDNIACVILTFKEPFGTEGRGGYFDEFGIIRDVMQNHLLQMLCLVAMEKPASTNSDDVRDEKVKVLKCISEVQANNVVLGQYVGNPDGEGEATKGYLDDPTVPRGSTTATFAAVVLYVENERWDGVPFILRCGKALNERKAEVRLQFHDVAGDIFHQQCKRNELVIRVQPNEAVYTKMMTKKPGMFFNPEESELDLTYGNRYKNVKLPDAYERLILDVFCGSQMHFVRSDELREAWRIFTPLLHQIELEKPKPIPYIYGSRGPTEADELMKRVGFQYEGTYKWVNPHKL

[14] = NIH-3T3 fibroblast cytotoxicity, dose response, cytotoxicity control, cell-based, fluorescence, Alamar Blue, secondary assay (AID 2327); assay type: functional;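 note: NIH-3T3 mouse fibroblasts cultured with fluconazole at 8 µg/mL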
[15] = luciferase reporter signal suppression in cells – H4 neuroglioma cells, luminescence, dose response (AID 1990); assay type: functional, cell-based
[16] = Luminescence Cell-Based Dose Response HTS to Identify Inhibitors of 5'UTR Stem-Loop Driven Prion Protein mRNA Translation in H4 Neuroglioblastoma Cells. [Related pubchem assays: 1827 (Project Summary), 1813 (Primary HTS)]; assay type: functional
[17] = alpha-synuclein stem-loop luciferase translation blockers – H4 neuroglioma cells, luminescence, confirmation (AID 1988); assay type: functional, cell-based
[18] = fluconazole-exposed Candida albicans growth modulators – fluorescence, retest, confirmation (AID 2467); assay type: functional, cell-based
[19] = Trypanosoma cruzi growth suppression in host cells – NIH3T3 host cells, beta-gal luminescence, confirmation (AID 2044); assay type: functional, cell-based;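 note: intracellular parasites grown in NIH/3T3 mouse fibroblasts as host cells; luminescent beta-galactosidase reporter signal from transgenic T. cruzi replicating inside host cells; inhibitors lower the luminescence signal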
[20] = viability of PTEN-deleted HCT116 cells – cell-based, HCT116 PTEN knockout, dose response (AID 1047); assay type: functional;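 note: HCT116 colon tumor cells with PTEN knocked out; cells exposed to compound for 60 hours before readout; potency for loss of cell viability measured by luminescence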
[21] = NIH3T3 cell viability loss – ATP luminescence, mouse fibroblasts, counter-screen, dose response (AID 2010); assay type: functional, cell-based;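 note: cells exposed to compound for about 90 hours before reading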
[22] = viability of HCT116 lacking mutant beta-catenin – cell-based, human colon tumor, dose response (AID 1045); assay type: functional;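 note: HCT116 colon tumor cells with beta catenin knocked out; cells exposed to compound for 60 hours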
[23] = target: T2, Replicative DNA helicase DnaB (Mycobacterium tuberculosis, UniProt P9WMR3); assay: DnaB intein splicing inhibitors, dose response, biochemical, cell-free fluorescence (AID 449749); assay type: functional
T2 sequence (P9WMR3 whole entry): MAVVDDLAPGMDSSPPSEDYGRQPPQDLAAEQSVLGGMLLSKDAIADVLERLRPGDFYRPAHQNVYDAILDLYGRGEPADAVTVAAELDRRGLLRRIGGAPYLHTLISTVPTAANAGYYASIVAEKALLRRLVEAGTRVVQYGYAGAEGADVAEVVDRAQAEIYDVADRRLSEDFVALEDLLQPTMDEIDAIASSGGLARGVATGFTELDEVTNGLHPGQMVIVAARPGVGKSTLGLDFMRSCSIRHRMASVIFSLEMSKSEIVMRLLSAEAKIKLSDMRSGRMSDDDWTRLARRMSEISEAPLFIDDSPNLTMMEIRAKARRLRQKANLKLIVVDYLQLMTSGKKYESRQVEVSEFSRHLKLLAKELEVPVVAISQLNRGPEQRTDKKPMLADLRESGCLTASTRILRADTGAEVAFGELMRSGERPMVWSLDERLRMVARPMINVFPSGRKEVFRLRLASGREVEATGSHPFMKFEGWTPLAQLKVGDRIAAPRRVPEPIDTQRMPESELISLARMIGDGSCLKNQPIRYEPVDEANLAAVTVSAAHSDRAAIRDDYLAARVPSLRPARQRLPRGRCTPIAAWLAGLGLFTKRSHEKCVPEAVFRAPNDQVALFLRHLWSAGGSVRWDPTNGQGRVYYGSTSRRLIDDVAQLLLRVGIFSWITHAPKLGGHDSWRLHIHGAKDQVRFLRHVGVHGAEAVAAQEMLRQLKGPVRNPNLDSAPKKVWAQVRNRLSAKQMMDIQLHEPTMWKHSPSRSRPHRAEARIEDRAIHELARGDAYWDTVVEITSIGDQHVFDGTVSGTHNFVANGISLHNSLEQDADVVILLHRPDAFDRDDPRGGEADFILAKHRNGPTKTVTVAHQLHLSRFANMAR

[24] = target: T3, Protein RecA (Mycobacterium tuberculosis, UniProt P9WHJ3); assay: Fluorescence Cell-Free Homogeneous Dose Retest to Identify Inhibitors of RecA-Intein Splicing Activity. [Related pubchem assays (depositor defined):AID2097, AID2223, AID489010, AID492950]; assay type: functional
T3 sequence (P9WHJ3 whole entry): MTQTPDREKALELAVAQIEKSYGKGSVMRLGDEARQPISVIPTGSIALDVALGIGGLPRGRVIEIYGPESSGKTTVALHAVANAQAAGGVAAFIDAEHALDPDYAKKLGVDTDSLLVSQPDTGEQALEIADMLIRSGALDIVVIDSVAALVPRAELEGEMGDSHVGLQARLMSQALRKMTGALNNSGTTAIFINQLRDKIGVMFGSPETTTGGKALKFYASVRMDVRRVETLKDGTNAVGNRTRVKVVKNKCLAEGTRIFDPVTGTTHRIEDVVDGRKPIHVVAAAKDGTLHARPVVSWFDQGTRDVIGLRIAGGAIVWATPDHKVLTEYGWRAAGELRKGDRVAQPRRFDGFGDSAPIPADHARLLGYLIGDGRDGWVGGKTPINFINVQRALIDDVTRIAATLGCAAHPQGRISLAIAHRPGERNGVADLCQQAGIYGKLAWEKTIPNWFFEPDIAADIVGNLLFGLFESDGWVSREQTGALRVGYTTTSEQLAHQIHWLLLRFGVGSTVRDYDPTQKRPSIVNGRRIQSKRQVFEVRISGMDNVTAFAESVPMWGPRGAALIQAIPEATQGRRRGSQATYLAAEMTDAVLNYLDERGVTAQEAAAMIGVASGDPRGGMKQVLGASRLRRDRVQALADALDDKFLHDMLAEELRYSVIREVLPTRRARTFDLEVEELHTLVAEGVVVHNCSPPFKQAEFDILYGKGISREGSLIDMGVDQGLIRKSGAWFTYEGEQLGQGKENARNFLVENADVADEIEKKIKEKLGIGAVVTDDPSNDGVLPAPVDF

[25] = target: DNA dC->dU-editing enzyme APOBEC-3G (Homo sapiens, UniProt Q9HC16); assay: Dose Response confirmation of small molecule APOBEC3G DNA Deaminase Inhibitors via a fluorescence-based single-stranded DNA deaminase assay. [Related pubchem assays (depositor defined):AID493012, AID493028]; assay type: functional
Chain of DNA dC->dU-editing enzyme APOBEC-3G (Q9HC16 whole entry): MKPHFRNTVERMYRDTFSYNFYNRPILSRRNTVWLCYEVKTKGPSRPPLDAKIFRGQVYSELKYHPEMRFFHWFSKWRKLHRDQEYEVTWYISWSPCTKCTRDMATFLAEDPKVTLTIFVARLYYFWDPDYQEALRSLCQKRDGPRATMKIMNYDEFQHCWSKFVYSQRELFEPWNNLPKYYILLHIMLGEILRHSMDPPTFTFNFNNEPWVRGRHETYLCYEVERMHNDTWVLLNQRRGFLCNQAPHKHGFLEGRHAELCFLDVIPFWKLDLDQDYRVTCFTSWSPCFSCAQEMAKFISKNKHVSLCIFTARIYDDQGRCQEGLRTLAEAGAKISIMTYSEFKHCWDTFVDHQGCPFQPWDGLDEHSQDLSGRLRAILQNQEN

[26] = target: T4, Fatty acid synthase (Homo sapiens, UniProt P49327); assay: inhibition of human FAS-TE enzyme activity – biochemical, endpoint fluorescence intensity, uHTS hits, dose response (AID 624327); assay type: functional;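 note: fluorescence from hydrolysis of an O-methyl fluorescein acyl ester substrate by the enzyme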
T4 sequence (P49327 whole entry): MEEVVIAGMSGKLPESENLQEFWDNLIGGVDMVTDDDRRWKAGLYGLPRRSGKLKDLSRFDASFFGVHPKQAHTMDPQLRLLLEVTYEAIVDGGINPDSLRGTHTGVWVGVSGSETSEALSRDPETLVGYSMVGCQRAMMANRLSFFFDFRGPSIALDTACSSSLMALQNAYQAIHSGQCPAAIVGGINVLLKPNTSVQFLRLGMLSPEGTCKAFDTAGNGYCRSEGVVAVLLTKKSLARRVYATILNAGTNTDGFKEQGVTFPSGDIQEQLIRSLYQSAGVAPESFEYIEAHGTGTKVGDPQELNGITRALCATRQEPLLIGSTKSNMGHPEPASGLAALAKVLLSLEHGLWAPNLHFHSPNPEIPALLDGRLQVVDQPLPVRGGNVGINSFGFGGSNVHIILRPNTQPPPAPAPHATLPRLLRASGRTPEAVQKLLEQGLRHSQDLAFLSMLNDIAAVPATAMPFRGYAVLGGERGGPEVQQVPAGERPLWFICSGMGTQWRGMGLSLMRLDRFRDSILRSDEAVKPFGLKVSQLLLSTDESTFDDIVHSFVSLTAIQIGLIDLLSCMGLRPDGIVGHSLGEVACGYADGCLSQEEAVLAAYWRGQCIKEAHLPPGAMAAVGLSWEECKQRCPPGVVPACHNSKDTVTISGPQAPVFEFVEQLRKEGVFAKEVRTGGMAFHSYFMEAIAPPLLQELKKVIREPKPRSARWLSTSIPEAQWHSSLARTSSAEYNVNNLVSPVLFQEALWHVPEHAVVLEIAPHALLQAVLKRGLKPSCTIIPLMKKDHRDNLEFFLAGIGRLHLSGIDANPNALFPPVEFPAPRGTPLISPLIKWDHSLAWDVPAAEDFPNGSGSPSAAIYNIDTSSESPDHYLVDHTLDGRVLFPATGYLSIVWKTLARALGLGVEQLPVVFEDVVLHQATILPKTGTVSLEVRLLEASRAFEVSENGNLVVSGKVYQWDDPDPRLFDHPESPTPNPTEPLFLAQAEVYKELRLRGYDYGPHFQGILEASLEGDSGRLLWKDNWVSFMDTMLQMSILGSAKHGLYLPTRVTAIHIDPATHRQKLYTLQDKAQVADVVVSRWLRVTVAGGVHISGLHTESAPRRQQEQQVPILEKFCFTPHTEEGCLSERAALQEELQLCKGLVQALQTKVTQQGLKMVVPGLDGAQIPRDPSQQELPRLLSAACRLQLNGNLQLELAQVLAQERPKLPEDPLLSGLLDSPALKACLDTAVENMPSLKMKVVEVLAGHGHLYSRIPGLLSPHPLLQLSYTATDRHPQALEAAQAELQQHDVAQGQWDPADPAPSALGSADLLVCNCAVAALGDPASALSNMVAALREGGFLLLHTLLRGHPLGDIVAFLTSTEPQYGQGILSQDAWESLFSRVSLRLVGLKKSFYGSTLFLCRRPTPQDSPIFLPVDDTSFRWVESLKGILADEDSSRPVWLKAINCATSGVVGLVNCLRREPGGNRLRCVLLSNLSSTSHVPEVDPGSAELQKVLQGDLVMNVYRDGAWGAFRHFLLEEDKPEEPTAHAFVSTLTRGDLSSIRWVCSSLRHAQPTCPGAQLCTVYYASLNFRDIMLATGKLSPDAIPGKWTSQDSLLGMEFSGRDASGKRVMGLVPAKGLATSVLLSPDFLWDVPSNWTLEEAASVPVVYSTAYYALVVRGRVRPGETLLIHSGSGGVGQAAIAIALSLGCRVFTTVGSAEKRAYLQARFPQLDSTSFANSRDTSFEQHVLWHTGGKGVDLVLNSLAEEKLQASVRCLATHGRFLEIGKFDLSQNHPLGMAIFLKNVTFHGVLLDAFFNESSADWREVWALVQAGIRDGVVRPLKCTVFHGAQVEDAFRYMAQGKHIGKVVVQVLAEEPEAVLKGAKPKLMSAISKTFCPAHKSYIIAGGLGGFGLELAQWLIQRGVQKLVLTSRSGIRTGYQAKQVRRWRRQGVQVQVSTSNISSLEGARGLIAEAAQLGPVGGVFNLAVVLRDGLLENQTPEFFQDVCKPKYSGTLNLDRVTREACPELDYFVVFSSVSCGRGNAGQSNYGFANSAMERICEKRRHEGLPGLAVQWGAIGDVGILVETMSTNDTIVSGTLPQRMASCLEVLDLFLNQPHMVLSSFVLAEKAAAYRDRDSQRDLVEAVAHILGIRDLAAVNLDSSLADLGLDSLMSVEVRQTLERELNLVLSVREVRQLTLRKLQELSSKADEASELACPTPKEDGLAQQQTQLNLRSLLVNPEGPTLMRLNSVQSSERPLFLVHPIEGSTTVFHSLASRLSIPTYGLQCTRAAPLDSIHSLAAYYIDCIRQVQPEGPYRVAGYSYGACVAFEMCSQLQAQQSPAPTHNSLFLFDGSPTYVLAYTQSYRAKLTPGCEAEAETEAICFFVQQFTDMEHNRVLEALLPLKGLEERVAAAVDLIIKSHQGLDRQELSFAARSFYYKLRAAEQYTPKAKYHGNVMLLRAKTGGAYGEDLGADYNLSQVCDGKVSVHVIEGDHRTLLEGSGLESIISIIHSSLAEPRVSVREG

[27] = target: T4, Fatty acid synthase; assay: inhibition of human FAS-TE enzyme activity – biochemical, kinetic fluorescence intensity, dose response (AID 624326); assay type: functional;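 note: rate of fluorescence rise from hydrolysis of a fluorogenic O-methyl fluorescein ester substrate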

Chain of Nonstructural protein 1 (Q194T2 whole entry): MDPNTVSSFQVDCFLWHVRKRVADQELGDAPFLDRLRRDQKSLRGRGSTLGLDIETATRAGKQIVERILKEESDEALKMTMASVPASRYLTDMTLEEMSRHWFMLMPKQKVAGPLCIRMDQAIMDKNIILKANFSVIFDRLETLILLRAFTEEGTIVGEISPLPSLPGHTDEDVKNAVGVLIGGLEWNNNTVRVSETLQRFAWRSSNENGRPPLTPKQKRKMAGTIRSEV

For `O=C(NN=Cc1c(O)ccc2ccccc12)c1ccncc1`, the IC50 [1] was 11.9 µM (active) and the AC50 [2] was 1.17 µM (active).
For `COc1cccc(S(=O)(=O)N2CCC3(CC2)CN(C(=O)Nc2cccc(F)c2)[C@@H](CO)c2[nH]c4cc(OC)ccc4c23)c1`, the AC50 [3] was 6.21 µM (active), the AC50 [4] was 6.68 µM (active) and the AC50 [5] was 8.03 µM (active).
With `COc1ccc(Cn2c(-c3ccc(C)cc3)c[n+]3ccccc23)cc1` the AC50 [6] was 2.89 µM (active) and the AC50 [7] was 4.52 µM (active).
For `COc1cccc2sc(N3CCN(C(=O)c4ccc([N+](=O)[O-])o4)CC3)nc12`, the EC50 [8] was > 350 µM (not active), the EC50 [9] was > 350 µM (not active) and the CC50 [10] was 36.5 µM (active). For the same compound, the CC50 [11] was 18.9 µM (active), the AC50 [6] was 7.03 µM (active) and the IC50 [12] was < 0.1 µM (active).
For `CC(C)c1nnc(NC(=O)c2cc3ccccc3o2)s1`, the IC50 [13] was > 80 µM (inactive).
In the case of `CC(=O)N(Cc1ccc(F)cc1)C1=C(NCc2ccccc2)C(=O)c2ccccc2C1=O`, the EC50 [14] is reported as 4.92 µM (inconclusive), the EC50 [15] is reported as 8.34 µM (active) and the EC50 [16] is reported as > 120 µM (not active). For the same compound, the EC50 [17] was 8.2 µM (active), the EC50 [18] was 0.708 µM (active) and the EC50 [19] was 0.317 µM (active). The EC50 [20] was 0.54 µM (active), the EC50 [21] was 7.47 µM (active) and the EC50 [22] was 0.444 µM (active). For the same compound, the IC50 [1] was 35.3 µM (active), the AC50 [23] was 5.17 µM (active) and the EC50 [24] was 0.776 µM (active).
For `COC(=O)[C@H](C)NC(=O)c1cc2c3ccccc3nc-2c[nH]1`, the IC50 [13] was > 80 µM (inactive) and the IC50 [25] was 25.6 µM (active).
With `Cc1ccc(-c2c(C(=O)N(C)Cc3ccccc3)oc(=O)c3ccccc23)cc1` the IC50 [26] was 11.6 µM (active) and the IC50 [27] was 12.3 µM (active).

Reference: ChEMBL document CHEMBL1201862, “PubChem BioAssay data set” (2004)
